The record followed here is patent US12594276B2, “Inhibitors of human immunodeficiency virus replication” (ViiV Healthcare UK (No.5) Limited, priority 2024, dated 2026).

The subject of data set [1] is recombinant NL4-3 virus (nef section replaced with Renilla luciferase gene) in MT-2 cells. The data set is described as follows: HIV cell culture assay (antiviral activity, luciferase readout). Format: cell-based. The following applies: Renilla, NL43, MT-2 cells infected for 4-5 days with recombinant NL4-3 Renilla luciferase virus. In outline: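 Antiviral EC50 derived from luciferase signal using the exponential median effect equation. Infection of MT-2 cells ran 4-5 days alongside serial dilutions of compound, with virus generated by proviral clone transfection of 293T cells.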

Data set [2] is described as follows: Compound cytotoxicity, XTT-based colorimetric assay. Format: cell-based. The settings on record: human; uninfected MT2 cells, day 4, XTT; read-out: CC50. Summed up:
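Follows the antiviral assay procedure, but with uninfected MT2 cells. On day 4, cell viability is measured by XTT-based colorimetry, giving CC50 values.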
(In general: Formazan colour is commonly taken as a measure of viable cells.)

The structures appear in SMILES notation.

Take `COCCCn1nc(NS(C)(=O)=O)c2c(Cl)ccc(-n3c([C@H](Cc4cc(F)cc(F)c4)NC(=O)Cn4nc(C(F)F)c5c4C(F)(F)[C@@H]4C[C@H]54)nc4nc(C5CCC(F)(F)CC5)cc(NC[C@H]5CCOC5)c4c3=O)c21` (atropisomer, axis not shown; (P)) [Example 567, N-[(1S)-1-[(3P)-3-[4-chloro-3-methanesulfonamido-1-(3-methoxypropyl)-1H-indazol-7-yl]-7-(4,4-difluorocyclohexyl)-4-oxo-5-({[(3R)-oxolan-3-yl]methyl}amino)-3H,4H-pyrido[2,3-d]pyrimidin-2-yl]-2-(3,5-difluorophenyl)ethyl]-2-[(2S,4R)-9-(difluoromethyl)-5,5-difluoro-7,8-diazatricyclo[4.3.0.0^2,^4]nona-1(6),8-dien-7-yl]acetamide]: the EC50 in data set [1] was 9 pM. In addition, in data set [2], the CC50 at 4 days is greater than 20000 pM.
For the molecule `COCCCn1nc(NS(C)(=O)=O)c2c(Cl)ccc(-n3c([C@H](Cc4cc(F)cc(F)c4)NC(=O)Cn4nc(C(F)F)c5c4C(F)(F)[C@@H]4C[C@H]54)nc4nc(C5CCC(F)(F)CC5)cc(NC[C@@H]5CCOC5)c4c3=O)c21` (atropisomer, axis not shown; (P)) [Example 568, N-[(1S)-1-[(3P)-3-[4-chloro-3-methanesulfonamido-1-(3-methoxypropyl)-1H-indazol-7-yl]-7-(4,4-difluorocyclohexyl)-4-oxo-5-({[(3S)-oxolan-3-yl]methyl}amino)-3H,4H-pyrido[2,3-d]pyrimidin-2-yl]-2-(3,5-difluorophenyl)ethyl]-2-[(2S,4R)-9-(difluoromethyl)-5,5-difluoro-7,8-diazatricyclo[4.3.0.0^2,^4]nona-1(6),8-dien-7-yl]acetamide], in data set [1], the EC50 turned out to be 10 pM. Besides, the CC50 at 4 days in data set [2] was greater than 20000 pM.
`Cc1cc(C2(F)CCC(F)(F)CC2)nc2nc([C@H](Cc3cc(F)cc(F)c3)NC(=O)Cn3nc(C(F)(F)F)c4c3C(F)(F)[C@@H]3C[C@H]43)n(-c3ccc(Cl)c4c(NS(C)(=O)=O)nn(CCN5C[C@H](F)C[C@H](F)C5)c34)c(=O)c12` (atropisomer, axis not shown; (P)) [Example 569, N-[(1S)-1-[(3P)-3-(4-chloro-1-{2-[(3R,5S)-3,5-difluoropiperidin-1-yl]ethyl}-3-methanesulfonamido-1H-indazol-7-yl)-5-methyl-4-oxo-7-(1,4,4-trifluorocyclohexyl)-3H,4H-pyrido[2,3-d]pyrimidin-2-yl]-2-(3,5-difluorophenyl)ethyl]-2-[(2S,4R)-5,5-difluoro-9-(trifluoromethyl)-7,8-diazatricyclo[4.3.0.0^2,^4]nona-1(6),8-dien-7-yl]acetamide]: the EC50 in data set [1] came to 12 pM. In data set [2], the CC50 at 4 days is greater than 20000 pM.
Turning to `Cc1cc(C2(F)CCC(F)(F)CC2)nc2nc([C@H](Cc3cc(F)cc(F)c3)NC(=O)Cn3nc(C4CC4)c4c3C(F)(F)[C@@H]3C[C@H]43)n(-c3ccc(Cl)c4c(NS(C)(=O)=O)nn(CCN5C[C@H](F)C[C@H](F)C5)c34)c(=O)c12` (atropisomer, axis not shown; (P)) [Example 570, N-[(1S)-1-[(3P)-3-(4-chloro-1-{2-[(3R,5S)-3,5-difluoropiperidin-1-yl]ethyl}-3-methanesulfonamido-1H-indazol-7-yl)-5-methyl-4-oxo-7-(1,4,4-trifluorocyclohexyl)-3H,4H-pyrido[2,3-d]pyrimidin-2-yl]-2-(3,5-difluorophenyl)ethyl]-2-[(2S,4R)-9-cyclopropyl-5,5-difluoro-7,8-diazatricyclo[4.3.0.0^2,^4]nona-1(6),8-dien-7-yl]acetamide], the EC50 in data set [1] is 29 pM. In addition, in data set [2], the CC50 at 4 days was greater than 20000 pM.
As to `Cc1cc(C2(F)CCC(F)(F)CC2)nc2nc([C@H](Cc3cc(F)cc(F)c3)NC(=O)Cn3nc(C(F)F)c4c3C[C@@H]3C[C@H]43)n(-c3ccc(Cl)c4c(NS(C)(=O)=O)nn(CCN5C[C@H](F)C[C@H](F)C5)c34)c(=O)c12` (atropisomer, axis not shown; (P)) [Example 571, N-[(1S)-1-[(3P)-3-(4-chloro-1-{2-[(3R,5S)-3,5-difluoropiperidin-1-yl]ethyl}-3-methanesulfonamido-1H-indazol-7-yl)-5-methyl-4-oxo-7-(1,4,4-trifluorocyclohexyl)-3H,4H-pyrido[2,3-d]pyrimidin-2-yl]-2-(3,5-difluorophenyl)ethyl]-2-[(2S,4S)-9-(difluoromethyl)-7,8-diazatricyclo[4.3.0.0^2,^4]nona-1(6),8-dien-7-yl]acetamide], the EC50 in data set [1] came out at 14 pM. Also, the CC50 at 4 days in data set [2] is greater than 20000 pM.
Consider `Cc1cc(C2(F)CCC(F)(F)CC2)nc2nc([C@H](Cc3cc(F)cc(F)c3)NC(=O)Cn3nc(C(F)(F)F)c4c3C[C@@H]3C[C@H]43)n(-c3ccc(Cl)c4c(NS(C)(=O)=O)nn(CCN5C[C@H](F)C[C@H](F)C5)c34)c(=O)c12` (atropisomer, axis not shown; (P)) [Example 572, N-[(1S)-1-[(3P)-3-(4-chloro-1-{2-[(3R,5S)-3,5-difluoropiperidin-1-yl]ethyl}-3-methanesulfonamido-1H-indazol-7-yl)-5-methyl-4-oxo-7-(1,4,4-trifluorocyclohexyl)-3H,4H-pyrido[2,3-d]pyrimidin-2-yl]-2-(3,5-difluorophenyl)ethyl]-2-[(2S,4S)-9-(trifluoromethyl)-7,8-diazatricyclo[4.3.0.0^2,^4]nona-1(6),8-dien-7-yl]acetamide], for which, in data set [1], the EC50 was 15 pM. For the same molecule, the CC50 at 4 days in data set [2] was greater than 20000 pM.
As for `Cc1cc(C2(F)CCC(F)(F)CC2)nc2nc([C@H](Cc3cc(F)cc(F)c3)NC(=O)Cn3nc([C@H]4CC4(F)F)c4c3C[C@H]3C[C@@H]43)n(-c3ccc(Cl)c4c(NS(C)(=O)=O)nn(CCN5C[C@H](F)C[C@H](F)C5)c34)c(=O)c12` (atropisomer, axis not shown; (P)) [Example 573, N-[(1S)-1-[(3P)-3-(4-chloro-1-{2-[(3R,5S)-3,5-difluoropiperidin-1-yl]ethyl}-3-methanesulfonamido-1H-indazol-7-yl)-5-methyl-4-oxo-7-(1,4,4-trifluorocyclohexyl)-3H,4H-pyrido[2,3-d]pyrimidin-2-yl]-2-(3,5-difluorophenyl)ethyl]-2-[(2R,4R)-9-[(1R)-2,2-difluorocyclopropyl]-7,8-diazatricyclo[4.3.0.0^2,^4]nona-1(6),8-dien-7-yl]acetamide], the EC50 in data set [1] was 12 pM. In data set [2], the cytotoxic concentration (CC50) at 4 days was greater than 20000 pM.
Regarding `Cc1cc(C2(F)CCC(F)(F)CC2)nc2nc([C@H](Cc3cc(F)cc(F)c3)NC(=O)Cn3nc(C(F)F)c4c3C(F)(F)[C@@H]3C[C@H]43)n(-c3ccc(Cl)c4c(NS(C)(=O)=O)nn(CCN5CCO[C@@H](C(C)C)C5)c34)c(=O)c12` (atropisomer, axis not shown; (P)) [Example 574, N-[(1S)-1-[(3P)-3-(4-chloro-3-methanesulfonamido-1-{2-[(2S)-2-(propan-2-yl)morpholin-4-yl]ethyl}-1H-indazol-7-yl)-5-methyl-4-oxo-7-(1,4,4-trifluorocyclohexyl)-3H,4H-pyrido[2,3-d]pyrimidin-2-yl]-2-(3,5-difluorophenyl)ethyl]-2-[(2S,4R)-9-(difluoromethyl)-5,5-difluoro-7,8-diazatricyclo[4.3.0.0^2,^4]nona-1(6),8-dien-7-yl]acetamide], the EC50 in data set [1] is 19 pM. The CC50 at 4 days in data set [2] is greater than 20000 pM.
For `Cc1cc(C2(F)CCC(F)(F)CC2)nc2nc([C@H](Cc3cc(F)cc(F)c3)NC(=O)Cn3nc(C(F)F)c4c3C(F)(F)[C@@H]3C[C@H]43)n(-c3ccc(Cl)c4c(NS(C)(=O)=O)nn(CCN5CCO[C@H](C(C)C)C5)c34)c(=O)c12` (atropisomer, axis not shown; (P)) [Example 575, N-[(1S)-1-[(3P)-3-(4-chloro-3-methanesulfonamido-1-{2-[(2R)-2-(propan-2-yl)morpholin-4-yl]ethyl}-1H-indazol-7-yl)-5-methyl-4-oxo-7-(1,4,4-trifluorocyclohexyl)-3H,4H-pyrido[2,3-d]pyrimidin-2-yl]-2-(3,5-difluorophenyl)ethyl]-2-[(2S,4R)-9-(difluoromethyl)-5,5-difluoro-7,8-diazatricyclo[4.3.0.0^2,^4]nona-1(6),8-dien-7-yl]acetamide], in data set [1], the EC50 was 12 pM. Also, in data set [2], the CC50 at 4 days is greater than 20000 pM.
Consider `Cc1cc(C2(F)CCC(F)(F)CC2)nc2nc([C@H](Cc3cc(F)cc(F)c3)NC(=O)Cn3nc(C(F)F)c4c3C(F)(F)[C@@H]3C[C@H]43)n(-c3ccc(Cl)c4c(NS(C)(=O)=O)nn(CCN5C[C@H](C)OC(C)(C)C5)c34)c(=O)c12` (atropisomer, axis not shown; (P)) [Example 576], for which the EC50 in data set [1] was determined as 10 pM. For the same molecule, in data set [2], the CC50 at 4 days was greater than 20000 pM.
In the same order, the values of `Cc1cc(C2(F)CCC(F)(F)CC2)nc2nc([C@H](Cc3cc(F)cc(F)c3)NC(=O)Cn3nc(C(F)F)c4c3C(F)(F)[C@@H]3C[C@H]43)n(-c3ccc(Cl)c4c(NS(C)(=O)=O)nn(CCN5C[C@@H](C)OC(C)(C)C5)c34)c(=O)c12` (atropisomer, axis not shown; (P)) [Example 577, N-[(1S)-1-[(3P)-3-(4-chloro-3-methanesulfonamido-1-{2-[(6R)-2,2,6-trimethylmorpholin-4-yl]ethyl}-1H-indazol-7-yl)-5-methyl-4-oxo-7-(1,4,4-trifluorocyclohexyl)-3H,4H-pyrido[2,3-d]pyrimidin-2-yl]-2-(3,5-difluorophenyl)ethyl]-2-[(2S,4R)-9-(difluoromethyl)-5,5-difluoro-7,8-diazatricyclo[4.3.0.0^2,^4]nona-1(6),8-dien-7-yl]acetamide] are 14 pM and greater than 20000 pM.

In general, EC50 refers to the concentration that produces a half-maximal response. What is called CC50 is the concentration at which the toxic effect on the cells reaches its halfway point.
